The test system of this assay is LTD4 evoked ileal contractions. As to the kind of experiment: LTD4 antagonism in isolated guinea pig ileum (inhibition of LTD4 evoked ileal contractions). In kind it is cell-based, guinea pig (male, Hartley). The note with it: Cavia porcellus; for IC50: 50% inhibition of LTD4 responses, interpolated by linear regression from 2-4 concentrations; for inhibition at 0.01 µM: compound concentration 1 × 10^-8 M; for inhibition at 0.01 µM / inhibition at 0.3 µM / inhibition at 0.1 µM / inhibition at 0.03 µM / inhibition at 0.003 µM: read-out: Percent inhibition of LTD4 evoked ileal contractions; for inhibition at 0.3 µM: compound concentration 3 × 10^-7 M; for inhibition at 0.1 µM: compound concentration 1 × 10^-7 M; for inhibition at 0.03 µM: compound concentration 3 × 10^-8 M; for inhibition at 0.003 µM: compound concentration 3 × 10^-9 M. The method, then:
Male, Hartley guinea pigs weighing 200-450 grams were killed by decapitation. A section of terminal ileum was removed, the lumen cleaned, and the tissue divided into 2.5 cm. segments. The ilea were mounted in 10 ml. tissue baths containing Krebs-bicarbonate solution of the following composition in mmoles/liter: KCl, 4.6; CaCl2 ·H2 O, 1.2; KH2 PO4, 1.2; MgSO4 ·7H2 O, 1.2; NaCl, 118.2; NaHCO3, 24.8; and dextrose, 10.0. The bath fluid was maintained at 37° C. and aerated with 95 percent oxygen and 5 percent CO2. In addition, the buffer contained 1×10^-6 M atropine to reduce ileal spontaneous activity. Isometric measurements were made with a Grass FTO3C force-displacement transducer and recorded on a Gras polygraph as change in grams of force. A passive force of 0.5 g. was applied to the tissues. After an appropriate equilibration period, single submaximal control responses to pure LTD4 were obtained. Following a five minute exposure of the ileum to an experimental drug, the control concentration of LTD4 was added to the tissue bath. The response of the ileum to LTD4 in the presence of the drug was compared to the response in the absence of the drug. Various degrees of LTD4 antagonism were obtained using 2-4 different concentrations of an experimental compound on a single ileum.

These results are taken from patent publication US4874777A, “Leukotriene antagonists” (Eli Lilly and Company, priority 1987, dated 1989).

SMILES strings stand for the structures.

Regarding `CCCc1c(COc2ccc(C(=O)CCCc3nnn[nH]3)c(O)c2)ccc(C(C)=O)c1O` [Example 13, 1-{4-[(4-Acetyl-3-hydroxy-2-propylphenyl)methoxy]-2-hydroxyphenyl}-4-(1H-tetrazol-5-yl)-1-butanone], the IC50 (commonly the concentration that gives 50% inhibition) was 24.5 nM; the inhibition – broadly, how much of the control response was suppressed – at 0.01 µM was 28%; the inhibition at 0.3 µM was found to be 82%.
With `CCCc1c(COc2ccc(C(=O)CCCCCc3nnn[nH]3)cc2)ccc(C(C)=O)c1O` [Example 19, 1-{4-[(4-Acetyl-3-hydroxy-2-propylphenyl)methoxy]phenyl}-6-(1H-tetrazol-5-yl)-1-hexanone], it took 32.4 nM to reach half-maximal inhibition (IC50), the inhibition at 0.1 µM worked out at 80% and the inhibition at 0.03 µM is 47%.
For `CCc1c(COc2ccc(C(=O)CC(C)(C)CC(=O)O)cc2)ccc(C(C)=O)c1O` [Example 23, 4-[(4-Acetyl-2-ethyl-3-hydroxyphenyl)methoxy]-β,β-dimethyl-δ-oxobenzenepentanoic acid], the IC50 is 21.4 nM, the inhibition at 0.1 µM is 88%, the inhibition at 0.01 µM stood at 25% and the inhibition at 0.03 µM was 66%.
For `CCCc1c(COc2ccc(C(=O)CCCCc3nnn[nH]3)cc2)ccc(C(C)=O)c1O` [Example 11, 1-{4-[(4-Acetyl-3-hydroxy-2-propylphenyl)methoxy]phenyl}-5-(1H-tetrazol-5-yl)-1-pentanone], the 50% inhibitory concentration (IC50) is 24.5 nM, the inhibition at 0.01 µM was found to be 43% and the inhibition at 0.03 µM worked out at 51%.
For the molecule `CCCc1c(COc2ccc(C(=O)CCCc3nnn[nH]3)cc2)ccc(C(C)=O)c1O` [Example 10, 1-{4-[(4-Acetyl-3-hydroxy-2-propylphenyl)methoxy]-phenyl}-4-(1H-tetrazol-5-yl)-1-butanone], the IC50 was 4.79 nM, the inhibition at 0.1 µM worked out at 95%, the inhibition at 0.01 µM was 57% and the inhibition at 0.3 µM worked out at 94%. For the same molecule, the inhibition at 0.03 µM is 76% and the inhibition at 0.003 µM was 46%.
On to `CCCc1c(COc2ccc3c(c2)C(=O)C(CC(=O)O)CC3)ccc(C(C)=O)c1O` (stereo not shown) [Example 29, 7-[(4-Acetyl-3-hydroxy-2-propylphenyl)methoxy]-1,2,3,4-tetrahydro-1-oxo-2-naphthaleneacetic acid], for which it took 75.9 nM to reach half-maximal inhibition (IC50).
For `CCCc1c(COc2cccc(C(=O)CCCc3nnn[nH]3)c2)ccc(C(C)=O)c1O` [Example 18, 1-{3-[(4-Acetyl-3-hydroxy-2-propylphenyl)methoxy]phenyl}-4-(1H-tetrazol-5-yl)-1-butanone], the IC50 was 18.2 nM, the inhibition at 0.1 µM came out at 84%, the inhibition at 0.01 µM turned out to be 34% and the inhibition at 0.03 µM is 65%.
For the molecule `CCCc1c(COc2ccc(C(=O)CC3(CC(=O)O)CCCC3)cc2)ccc(C(C)=O)c1O` [Example 24, 1-(2-{4-[(4-Acetyl-3-hydroxy-2-propylphenyl)methoxy]phenyl}-2-oxoethyl)cyclopentaneacetic acid], the IC50 was 13.5 nM, the inhibition at 0.1 µM is 85%, the inhibition at 0.01 µM amounted to 35% and the inhibition at 0.03 µM was found to be 74%.
`CCCc1c(COc2ccc(C(=O)C(C)(C)Cc3nnn[nH]3)cc2)ccc(C(C)=O)c1O` [Example 12, 1-{4-[(4-Acetyl-3-hydroxy-2-propylphenyl)methoxy]phenyl}-2,2-dimethyl-3-(1H-tetrazol-5-yl)-1-propanone]: 51.3 nM corresponded to half-maximal inhibition (IC50), the inhibition at 0.3 µM was 60% and the inhibition at 0.03 µM is 41%.
In the case of `CCCc1c(COc2ccc(C(=O)C(C)Cc3nnn[nH]3)cc2)ccc(C(C)=O)c1O` (stereo not shown) [Example 14, 1-{4-[(4-Acetyl-3-hydroxy-2-propylphenyl)methoxy]phenyl}-2-methyl-3-(1H-tetrazol-5-yl)-1-propanone], the IC50 is 20.4 nM, the inhibition at 0.01 µM was found to be 35% and the inhibition at 0.03 µM came out at 58%.
For `CCCc1c(COc2ccc(C(=O)CCc3nnn[nH]3)cc2)ccc(C(C)=O)c1O` [Example 9, 1-{4-[(4-Acetyl-3-hydroxy-2-propylphenyl)methoxy]phenyl}-3-(1H-tetrazol-5-yl)-1-propanone], the half-inhibitory concentration (IC50) was 26.3 nM, the inhibition at 0.1 µM was determined as 85%, the inhibition at 0.01 µM is 25% and the inhibition at 0.3 µM is 91%. Also, the inhibition at 0.03 µM is 54%.
Consider `CCCc1c(COc2ccc(C(=O)CCCC(=O)O)cc2)ccc(C(C)=O)c1O` [Example 7, 4-[(4-Acetyl-3-hydroxy-2-propylphenyl)methoxy]-δ-oxobenzenepentanoicacid], for which the IC50 is 37.2 nM, the inhibition at 0.1 µM was 68% and the inhibition at 0.01 µM was found to be 17%.
Take `CCCc1c(COc2ccc(C(=O)CCCCC(=O)O)cc2)ccc(C(C)=O)c1O` [Example 5, 4-[(4-Acetyl-3-hydroxy-2-propylphenyl)methoxy]-ε-oxobenzenehexanoic acid]: inhibition was half-maximal at 15.8 nM (IC50), the inhibition at 0.1 µM stood at 86%, the inhibition at 0.01 µM stood at 40% and the inhibition at 0.03 µM is 63%.
Take `CCc1c(COc2ccc(C(=O)CC(C)(C)Cc3nnn[nH]3)cc2)ccc(C(C)=O)c1O` [Example 16, 1-{4-[(4-Acetyl-3-hydroxy-2-ethylphenyl)methoxy]phenyl}-3,3-dimethyl-4-(1H-tetrazol-5-yl)-1-butanone]: the IC50 is 4.79 nM, the inhibition at 0.1 µM was 95%, the inhibition at 0.01 µM is 63% and the inhibition at 0.003 µM stood at 41%.
Regarding `CCCc1c(COc2ccc(C(=O)Cc3nnn[nH]3)cc2)ccc(C(C)=O)c1O` [Example 8, 1-{4-[(4-acetyl-3-hydroxy-2-propylphenyl)methoxy]phenyl}-2-(1H-tetrazol-5-yl)ethanone], the half-inhibitory concentration (IC50) is 21.9 nM, the inhibition at 0.01 µM worked out at 40% and the inhibition at 0.03 µM stood at 54%.
`CCCc1c(COc2ccc(C(=O)CC(C)(C)CC(=O)O)cc2)ccc(C(C)=O)c1O` [Example 6, 4-[(4-Acetyl-3-hydroxy-2-propylphenyl)methoxy]-β,β-dimethyl-δ-oxobenzenepentanoic acid]: the IC50 is 18.6 nM, the inhibition at 0.1 µM was found to be 78%, the inhibition at 0.01 µM was 41% and the inhibition at 0.003 µM was determined as 16%.
On to `CCCc1c(COc2ccc(C(=O)CCC(=O)O)cc2)ccc(C(C)=O)c1O` [Example 1, 4-[(4-Acetyl-3-hydroxy-2-propylphenyl)methoxy]-γ-oxobenzenebutanoic acid], for which the IC50 was 33.1 nM, the inhibition at 0.3 µM is 97% and the inhibition at 0.03 µM was found to be 48%.
Molecule `CCCc1c(COc2ccc3c(c2)CCC(CC(=O)O)C3=O)ccc(C(C)=O)c1O` (stereo not shown) [Example 28, 6-[(4-Acetyl-3-hydroxy-2-propylphenyl)methoxy]-1,2,3,4-tetrahydro-1-oxo-2-naphthaleneacetic acid] had a concentration for half-maximal inhibition (IC50) of 10.2 nM.
As for `CCCc1c(COc2ccc(C(=O)CC(C)(C)Cc3nnn[nH]3)cc2)ccc(C(C)=O)c1O` [Example 15, 1-{4-[(4-Acetyl-3-hydroxy-2-propylphenyl)methoxy]phenyl}-3,3-dimethyl-4-(1H-tetrazol-5-yl)-1-butanone], half-maximal inhibition (IC50) required 3.24 nM, the inhibition at 0.03 µM was found to be 91% and the inhibition at 0.003 µM was 50%.
